Measured values taken from PubChem BioAssay (NCI).
Several values for one entry are separate records, joined by “and”; a condition that tells them apart may be missing. Equal values may be shown once.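 How tested: cells in 96-well plates exposed to compound for 48 hours at five concentrations. At the GI50, growth is halved. TGI: total growth inhibition.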

Legend:
Test in all cases: inhibition of tumour cell growth, NCI panel, 48 h
K-562 leukemia = system: K-562 leukemia
SK-MEL-2 melanoma = system: SK-MEL-2 melanoma
CAKI-1 renal = system: CAKI-1 renal
NCI-H226 lung = system: NCI-H226 lung
MCF7 breast = system: MCF7 breast
ACHN renal = system: ACHN renal
NCI-H460 lung = system: NCI-H460 lung
SF-295 CNS = system: SF-295 CNS
MOLT-4 leukemia = system: MOLT-4 leukemia
CCRF-CEM leukemia = system: CCRF-CEM leukemia

Compound	GI50 (K-562 leukemia) [µM]	TGI (K-562 leukemia) [µM]	GI50 (SK-MEL-2 melanoma) [µM]	TGI (SK-MEL-2 melanoma) [µM]	GI50 (CAKI-1 renal) [µM]	TGI (CAKI-1 renal) [µM]	GI50 (NCI-H226 lung) [µM]	TGI (NCI-H226 lung)	GI50 (MCF7 breast) [µM]	TGI (MCF7 breast)	GI50 (ACHN renal) [µM]	TGI (ACHN renal) [µM]	GI50 (NCI-H460 lung) [µM]	TGI (NCI-H460 lung) [µM]	GI50 (SF-295 CNS) [µM]	TGI (SF-295 CNS)	GI50 (MOLT-4 leukemia) [µM]	TGI (MOLT-4 leukemia) [µM]	GI50 (CCRF-CEM leukemia) [µM]	TGI (CCRF-CEM leukemia) [µM]
O=C1Nc2ccc(F)cc2/C1=C/c1ccc[nH]1	> 25	> 25	> 25	> 25	8.03	> 25	> 25	> 25 µM	1.06	> 25 µM	18.5	> 25	> 25	> 25	> 25	> 25 µM	> 25	> 25		
Br[C](Br)(Br)[Hg][c]1ccccc1	0.275	5.02	17.8	32	15.2	29.8	16.8	35.8 µM	4.85	19.4 µM	17.1	30.8	16.8	37.9	15.6	30 µM	3.66	35.2	1.49	9.13
CC1=C(O)C(=O)C=C2C1=CC=C1[C@@]2(C)CC[C@@]2(C)[C@@H]3C[C@](C)(C(=O)O)CC[C@]3(C)CC[C@]12C		0.0617		0.219		0.0375		0.366 µM		0.266 µM		0.0459		0.384		0.54 µM				0.15
COc1cccc(C#Cc2ccccc2C#CCCCCO)c1	1.84	85.4	20.5	44.8	6.49	19.9	15.7	40.5 µM	16.1	41.1 µM	11.8	25.8	16.1	34	7.94	22.1 µM	3.82	53.1	3.5	17.4
C/C(N=NC(=S)N(C)C)=C1\C=CC=CN1O		> 100		> 56.2		> 100		> 100 µM		> 100 µM		> 100		> 100		> 100 µM		> 56.4		> 63.5
COc1cccc2c(=O)c3c(sc12)c(N1CCNCC1)nc1ccccc13			1.94	3.88	1.64	3.01	1.58	3.18 µM	1.57	3.28 µM	1.6	2.97	1.72	3.41	1.82	3.37 µM				
CCCCCCCCCCCCCCCCCCOc1ccccc1CC(=O)OCC[N+]1(C)CCCC1	2.81	10.5			1.6	4.05	2.2	6.09 µM	2.11	4.76 µM	4	16.4	2.15	4.65	2.83	8.8 µM	2.12	4.95		
CN(C)C(=O)[C@H](O)[C@H](Cc1ccccc1)NC(=O)c1cc2cc(Cl)ccc2[nH]1	25.8	> 100	17.2	37.2	19.3	> 77.5	23	> 88.2 µM	22.1	> 83.3 µM	22.2	60.8	22	56.1	17.3	39 µM	21	79.4	30.2	> 100
O=c1c2ccccc2c(=O)c2c1[nH]c1c(-c3ccccc3)c(-c3ccccc3)c(=O)c12	3.68	> 100	2.84	15.6	1.93	4.99	3.56	44.5 µM	2.48	> 100 µM	1.93	3.62	2.82	12	2.34	6.24 µM	1.92	13.3	1.46	11
Nc1nc(F)nc2c1ncn2C1OC(CO)C(O)C1O (stereo unspecified)		> 100		> 100	6.25	> 96.2		> 100 µM	26.3	> 100 µM	23.2	> 100	43.2	> 100		> 100 µM		> 100	1.21	> 77
COc1ccc(C(=O)COc2ccc(/C=C3\COc4ccc(OC)cc4C3=O)cc2)cc1	4.09	61.2	37.5	> 100	32.4	> 100	54.7	> 100 µM	3.1	18.6 µM	29.7	> 100	57.5	> 100	14.5	38.1 µM	9.36	51.6	2.86	10.2
ClCC[N+]12CC[N+](CCCl)(CC1)C2		> 100		> 100		> 100		> 100 µM		> 100 µM		> 100		> 100		> 100 µM		> 100		> 100
O=C1CC2c3ccccc3CCC2c2ccccc21 (stereo unspecified)		> 100		35.9		> 100		52.4 µM		> 100 µM		> 100		69.2		49.7 µM		> 100		
ClCc1cccc(Cn2cnc3nc(Cl)nc(Cl)c32)c1	1.48	2.95	1.78	3.74	1.89	3.4	1.04	3.54 µM	0.505	1.38 µM	0.396	0.837	1.72	3.09	2.02	3.78 µM	1.17	2.7	0.31	0.973
COc1cc(/C=C/c2cc(/C=C/c3ccc(O)c(OC)c3)n(C(=O)Nc3ccc(C)cc3C)n2)ccc1O	0.292	1.17			0.367	5.09	0.389	2.1 µM	0.317	1.37 µM	0.412	2.11					0.281	1.22	0.232	> 100
Cc1ncc(CCCN(C)C)cc1Nc1ncc2c(n1)-c1ccc(C(F)(F)F)cc1NC(=S)C2	< 0.0169	> 34	1.08	6.99	0.0779	5.54	0.659	15.7 µM	< 0.0155	11.2 µM	0.0892	> 53.6	< 0.0178	11.9	< 0.01	2.7 µM	< 0.0156	16.6	< 0.0134	10.4
CCNC(=O)Nc1cccc(NC(=O)NCC)n1		> 100				> 100		> 100 µM		> 100 µM		> 100		> 100		> 100 µM		> 100		> 100

Compound	GI50 (K-562 leukemia) [µM]	TGI (K-562 leukemia) [µM]	GI50 (SK-MEL-2 melanoma) [µM]	TGI (SK-MEL-2 melanoma) [µM]	GI50 (CAKI-1 renal) [µM]	TGI (CAKI-1 renal) [µM]	GI50 (NCI-H226 lung) [µM]	TGI (NCI-H226 lung)	GI50 (MCF7 breast) [µM]	TGI (MCF7 breast)	GI50 (ACHN renal) [µM]	TGI (ACHN renal) [µM]	GI50 (NCI-H460 lung) [µM]	TGI (NCI-H460 lung) [µM]	GI50 (SF-295 CNS) [µM]	TGI (SF-295 CNS)	GI50 (MOLT-4 leukemia) [µM]	TGI (MOLT-4 leukemia) [µM]	GI50 (CCRF-CEM leukemia) [µM]	TGI (CCRF-CEM leukemia) [µM]
CCOc1cc(C(C)(C)C)ccc1C1=N[C@@](C)(c2ccc(Cl)cc2)[C@@](C)(c2ccc(Cl)cc2)N1C(=O)N1CCN(CCCS(C)(=O)=O)CC1	3.71	> 100	9.14	30	0.214	5.15	0.462	2.11 µM	0.456	3.89 µM	0.505	11.3	0.895	11.8	4.13	15.2 µM	0.375	> 100	4.1	> 100
Cc1[nH]c2ccccc2c(=O)c1CC=C(Cl)Cl	99.2	> 100	28.4	> 100	63.9	> 100	25.9	> 100 µM	58	> 100 µM	37.3	> 100	72.5	> 100	32	> 100 µM	82.3	> 100	> 100	> 100
O=C(O)C1C(Br)(c2ccccc2)C1(Br)c1ccccc1 (stereo unspecified)		> 100		80.2		81.9		> 100 µM		> 100 µM		57		> 100		> 100 µM		> 100		
Clc1ccc(C=Nc2ccc3c(c2)Cc2ccccc2-3)c(Cl)c1		> 100		> 100		> 100		> 100 µM		> 100 µM		> 100		> 100		> 100 µM		> 100		> 100
O=c1cccc(C#CC#CC2=CCCCC2)o1	3.26	> 41.8	10.3	> 49	6.48	10.3	6.87	14.6 µM	5.04	13.4 µM	4.49	10	10.6	21.8	9.04	16.4 µM	0.309	> 33	0.649	5.5
CC/C=C\C[C@H]1C/C=C2/C(=O)C=C[C@@H]2C/C=C\CCCC(=O)O1	0.353	> 54.5	1.86	4.87	1.05	8.98	1.94	4.75 µM	0.395	8.06 µM	0.197	0.393	2.16	8.86	2.17	5.44 µM	0.604	5.21	0.339	5.04
Nc1ccc2cc3ccc(N)cc3nc2c1					0.723			4.3 µM [middle of 4 runs]	0.52	7.19 µM and 22.6 µM and 14.5 µM	0.609				1.47	7.12 µM [middle of 4 runs]			1.92	
COc1ccc2cc(C(C)C(=O)N3CCOC3=O)ccc2c1 (stereo unspecified)		> 100				> 100		> 100 µM		> 100 µM		> 100		> 100		> 100 µM		> 100		> 100
O=C1NC(=O)C(CC2CCCCCCCCCCC2=O)C(=O)N1 (stereo unspecified)				> 100		> 100		> 100 µM		> 100 µM		> 100		> 100		> 100 µM		> 100		> 100
Cn1c2ccccc2c(=O)c2ccc(Cl)cc21		> 10		> 10						> 10 µM						> 10 µM		> 10		> 10
Nc1ccn(C2CCC(CO)O2)c(=O)n1 (stereo unspecified)	> 1000	> 1000	> 1000	> 1000	> 1000	> 1000	> 1000	> 1000 µM	> 1000	> 1000 µM		> 1000			> 1000	> 1000 µM	87.5	> 1000	108	> 1000
CC(C)C[C@H](NC(=O)/C=C/Cn1ccc2ccccc2c1=O)B(O)O	6	> 100	3.12	23.5	4.95	> 100	1.76	3.63 µM	5.33	> 100 µM	3.33	> 100	12.7	97.5	2.75	15.1 µM	2.73	12.5		
COc1c(CCl)cc(-c2cc(=O)c3ccccc3s2)cc1CCl		> 100		> 100		> 100		> 31.6 µM		> 22.7 µM		> 100		> 100		36.1 µM				
CC1=CC(C/C(C)=C/COc2ccc3ccc(=O)oc3c2)OC1=O (stereo unspecified)		> 100				> 100		> 100 µM		> 100 µM		> 100		> 100		> 100 µM		> 100		> 100
COc1cc(NC(C)CCCN)c2nccc(C)c2c1 (stereo unspecified)				37.9		56				33.2 µM		74.6		54.7		35.4 µM				
COc1ccc(/C=C/C(=O)C(CC2CCC2)C(=O)/C=C/c2ccc(OC)c(OC)c2)cc1OC	2.15	> 100	2.11	4.7			2.68	6.74 µM	0.6	40.5 µM	1.48	2.95	2.01	4.14	2.5	7.22 µM	2.82	8.95	2.05	> 100
